Results on 21 molecules are retold here after paper PMC11726183, “Design, synthesis, in vitro, and in silico studies of novel isatin-hybrid hydrazones as potential triple-negative breast cancer agents” (RSC Advances, 2025).

Read-outs that look alike come from different tables or passages of the source.

Usually IC50 stands for the point on the concentration scale where inhibition reaches its midpoint. What is called viability is a per cent measure of how many cells are alive, often set against a control.

Holding throughout (type): cell-based, human
For data set [1], the system named is MDA-MB-231 breast cancer cell line. Kind of data set: MTT cytotoxicity assay on breast cancer cell line MDA-MB-231. Particulars: for IC50: read-out: IC50 values, breast cancer cell line MDA-MB-231; for % viability, breast cancer cell line MDA-MB-231: concentration for the value not given (6.5-50 μM tested). The text has this:
(§1) Breast cancer cells MDA-MB-231 were used to investigate the synthesized compounds' anticancer properties. Because these cancer cells lack estrogen receptors (ER), progesterone receptors (PR), and human epidermal growth factor receptor 2 (HER2), they are also known as triple-negative breast cancer cells (TNBC).[44] These receptors are generally utilized as target proteins in cancer treatment and are often overexpressed in cancer cells. […] At the same time human normal breast epithelial cell line MCF-10A was kept as a control in the experiment to check out whether the cytotoxic effects of the compounds were selective for malignant cells in comparison to non-malignant cells. Variable concentrations (6.5 μM, 12.5 μM, 25 μM, and 50 μM) of the synthesized compounds 5–25 were used to investigate the prohibition of growth in the human breast cancer cell line MDA-MB-231 and the non-tumorigenic MCF-10. The MTT [3-(4,5-dimethylthiazol-2-yl)-2,5-diphenyltetrazolium bromide] assay was used to determine the reduction in cancer cell viability induced by cytotoxic agents. […] IBM SPSS Statistics 26 software was used for the analysis of dose–response and computation of IC50 values.
(§2) In vitro, cytotoxicity assay for the synthetic derivatives was determined by performing an MTT (yellow tetrazolium salt, 3-(4,5-dimethylthizol-2-yl)-2,5-diphenyl tetrazolium bromide) assay by using an aggressive breast cancer cell line MDA-MB-231.[51] Human breast normal cell line MCF-10A was kept as a control in the study.[52,53] Cells were cultured in DMEM augmented with 10% FBS and 1% antibiotics (100 U per mL penicillin). The cells were sowed in a 96-well plate at a 1.0 × 10^4 cells per well density and incubated for 24 h at 37 °C in 5% CO2. The medium was discarded, and both the cell lines were treated with different concentrations (6.5 μM, 12.5 μM, 25 μM, and 50 μM) of synthetic hydrazone derivatives.[54] After 48 h of incubation 20 μL of MTT solution (5 mg mL^−1) was pipetted into each well and incubated for another 4 h.[55] Later the medium was discarded, and the precipitate of formazan was dissolved in DMSO. The absorbance of the mixtures was calculated using a microplate reader at 570 nm. Triplicates were used for performing all experiments and the cytotoxicity was expressed as a percentage of cell viability compared to untreated control cells.[54]1 [drawing 22]
On the technique in general: Formazan colour is commonly taken as a measure of viable cells.

The test system of a further data set is normal cell line MCF-10. Kind of data set: MTT cytotoxicity assay on normal breast epithelial cell line MCF-10A (control). Conditions: for IC50: read-out: IC50 values, normal cell line MCF-10.
Description: as §1, §2

Assay in data set [2]: as above
Particulars: human, MTT, 48 h, concentration for the value not given (6.5-50 μM tested).
Description: as §1, §2

Where [3] appears, read: Homo sapiens, MDA-MB-231, MTT, 48 h.
[4] abbreviates: Homo sapiens, MCF10, MTT, 48 h, unit from text (highest concentration 50 μM).
The mark [5] stands for this setting: MCF-10A normal breast epithelial cells.

With `O=C(N/N=C1/C(=O)N(Cc2ccccc2)c2ccccc21)c1cccc(Cl)c1` [Compound 5, (E)-N′-(1-Benzyl-2-oxoindolin-3-ylidene)-3-chlorobenzohydrazide], the IC50 is 26.4 ± 0.8 µM in data set [1] (Homo sapiens, MDA-MB-231, 48 h) and above 50 µM with normal cell line MCF-10 (Homo sapiens, MCF10, 48 h). In addition, the “% viability, breast cancer cell line MDA-MB-231” value in data set [1] (MTT, 48 h) is reported as 27.11%. In data set [2], the viability at 48 h worked out at 80.1%.
For the molecule `COc1ccc(C(=O)N/N=C2/C(=O)N(Cc3ccccc3)c3ccccc32)cc1` [Compound 6, (E)-N′-(1-Benzyl-2-oxoindolin-3-ylidene)-4-methoxybenzohydrazide], the IC50 was 25.8 ± 0.4 µM in data set [1] (Homo sapiens, MDA-MB-231, 48 h) and above 50 µM with normal cell line MCF-10 (Homo sapiens, MCF10, 48 h). Besides, the “% viability, breast cancer cell line MDA-MB-231” value in data set [1] (MTT, 48 h) turned out to be 26.13%. The molecule also registered a viability at 48 h in data set [2] of 81.1%.
As for `Cc1ccc(F)c(C(=O)N/N=C2/C(=O)N(Cc3ccccc3)c3ccccc32)c1` [Compound 7, (E)-N′-(1-Benzyl-2-oxoindolin-3-ylidene)-2-fluoro-5-methylbenzohydrazide], the IC50 in data set [1] (Homo sapiens, MDA-MB-231, 48 h) was 33.6 ± 0.5 µM; with normal cell line MCF-10 (Homo sapiens, MCF10, 48 h), above 50 µM. Moreover, the “% viability, breast cancer cell line MDA-MB-231” value in data set [1] (MTT, 48 h) is 30.01%. The viability at 48 h in data set [2] worked out at 79.3%.
For the molecule `O=C(N/N=C1/C(=O)N(Cc2ccccc2)c2ccccc21)c1ccncc1` [Compound 8, (E)-N′-(1-Benzyl-2-oxoindolin-3-ylidene)isonicotinohydrazide], the IC50 in data set [1] (Homo sapiens, MDA-MB-231, 48 h) is 16.8 ± 0.9 µM; in the data set with normal cell line MCF-10 (Homo sapiens, MCF10, 48 h), above 50 µM. The “% viability, breast cancer cell line MDA-MB-231” value in data set [1] (MTT, 48 h) was determined as 19.13%. Besides, the viability at 48 h in data set [2] is 78.1%.
The like results for `Cc1ccc(C(=O)N/N=C2/C(=O)N(Cc3ccccc3)c3ccccc32)cc1F` [Compound 9, (E)-N′-(1-Benzyl-2-oxoindolin-3-ylidene)-3-fluoro-4-methylbenzohydrazide] were, in that order, 27.4 ± 0.5 µM, above 50 µM, 25.61% and 76.2%.
In the case of `O=C(Cc1ccccc1C(F)(F)F)N/N=C1/C(=O)N(Cc2ccccc2)c2ccccc21` [Compound 10, (E)-N′-(1-Benzyl-2-oxoindolin-3-ylidene)-2-(2-(trifluoromethyl)phenyl)acetohydrazide], the IC50 in data set [1] (setting [3]) was 25.4 ± 0.8 µM; in the data set on normal cell line MCF-10 (setting [4]) it was above 50 µM. The “% viability, breast cancer cell line MDA-MB-231” value in data set [1] (MTT, 48 h) is recorded as 29.12%. The same molecule had a viability at 48 h in data set [2] (setting [5]) of 84.9%.
Turning to `O=C(N/N=C1/C(=O)N(Cc2ccccc2)c2ccccc21)c1ccccc1` [Compound 11, (E)-N′-(1-Benzyl-2-oxoindolin-3-ylidene)benzohydrazide], the IC50 in data set [1] (Homo sapiens, MDA-MB-231, 48 h) was 28.4 ± 0.5 µM; in the data set with normal cell line MCF-10 (Homo sapiens, MCF10, 48 h), above 50 µM. For the same molecule, the “% viability, breast cancer cell line MDA-MB-231” value in data set [1] (MTT, 48 h) was determined as 25.41%. Also, the viability at 48 h in data set [2] amounted to 82%.
In the case of `O=C(Cc1ccc(C(F)(F)F)cc1)N/N=C1/C(=O)N(Cc2ccccc2)c2ccccc21` [Compound 12, (E)-N′-(1-Benzyl-2-oxoindolin-3-ylidene)-2-(4-(trifluoromethyl)phenyl)acetohydrazide], the IC50 is 31.2 ± 0.9 µM in data set [1] (setting [3]) and above 50 µM in the data set on normal cell line MCF-10 (setting [4]). Besides, the “% viability, breast cancer cell line MDA-MB-231” value in data set [1] (MTT, 48 h) turned out to be 36.52%. The molecule also registered a viability at 48 h in data set [2] (setting [5]) of 80.4%.
`O=C(N/N=C1/C(=O)N(Cc2ccccc2)c2ccccc21)c1cccc2ccccc12` [Compound 13, (E)-N′-(1-Benzyl-2-oxoindolin-3-ylidene)-1-naphthohydrazide]: the concentration for half-maximal inhibition (IC50) in data set [1] (Homo sapiens, MDA-MB-231, 48 h) is 28.6 ± 0.5 µM; with normal cell line MCF-10 (Homo sapiens, MCF10, 48 h) it was above 50 µM. Also, in data set [1] (MTT, 48 h), the “% viability, breast cancer cell line MDA-MB-231” value is reported as 29.01%. The viability at 48 h in data set [2] came out at 79.1%.
The like results for `O=C(N/N=C1/C(=O)N(Cc2ccccc2)c2ccccc21)c1ccc(Br)cc1` [Compound 14, (E)-N′-(1-Benzyl-2-oxoindolin-3-ylidene)-4-bromobenzohydrazide] were, in that order, 36.8 ± 0.7 µM, above 50 µM, 42.11% and 85.4%.
In the same order, the values of `Cc1ccccc1C(=O)N/N=C1/C(=O)N(Cc2ccccc2)c2ccccc21` [Compound 15, (E)-N′-(1-Benzyl-2-oxoindolin-3-ylidene)-2-methylbenzohydrazide] are 24.4 ± 0.6 µM, above 50 µM, 23.77% and 84.3%.
The like results for `O=C(N/N=C1/C(=O)N(Cc2ccccc2)c2ccccc21)c1ccco1` [Compound 16, (E)-N′-(1-Benzyl-2-oxoindolin-3-ylidene)furan-2-carbohydrazide] were, in that order, 29.2 ± 0.7 µM, above 50 µM, 29.40% and 79.9%.
For the molecule `O=C(N/N=C1/C(=O)N(Cc2ccccc2)c2ccccc21)c1ccc(C(F)(F)F)cc1` [Compound 17, (E)-N′-(1-Benzyl-2-oxoindolin-3-ylidene)-4-(trifluoromethyl)benzohydrazide], the IC50 in data set [1] (Homo sapiens, MDA-MB-231, 48 h) is 37.5 ± 0.9 µM; in the data set on normal cell line MCF-10 (Homo sapiens, MCF10, 48 h) it was above 50 µM. The “% viability, breast cancer cell line MDA-MB-231” value in data set [1] (MTT, 48 h) is 38.09%. The molecule further returned a viability at 48 h in data set [2] of 77.6%.
For `O=C(N/N=C1\C(=O)N(Cc2ccccc2)c2ccccc21)c1cccnc1` [Compound 18, (Z)-N′-(1-Benzyl-2-oxoindolin-3-ylidene)nicotinohydrazide], the IC50 was 34.6 ± 0.4 µM in data set [1] (Homo sapiens, MDA-MB-231, 48 h) and above 50 µM in the data set with normal cell line MCF-10 (Homo sapiens, MCF10, 48 h). In addition, the “% viability, breast cancer cell line MDA-MB-231” value in data set [1] (MTT, 48 h) is 41.19%. This molecule showed a viability at 48 h in data set [2] of 85.1%.
With `O=C(Cc1ccccc1Nc1c(Cl)cccc1Cl)N/N=C1/C(=O)N(Cc2ccccc2)c2ccccc21` [Compound 19, (E)-N′-(1-Benzyl-2-oxoindolin-3-ylidene)-2-(2-((2,6-dichlorophenyl)amino)phenyl) acetohydrazide], the results for the IC50 (in data set [1] (setting [3]); in the data set with normal cell line MCF-10 (setting [4])) were 29.2 ± 0.4 µM and above 50 µM, respectively. Further, the “% viability, breast cancer cell line MDA-MB-231” value in data set [1] (MTT, 48 h) was found to be 37.23%. The viability at 48 h in data set [2] (setting [5]) came to 80.3%.
As for `O=C(N/N=C1/C(=O)N(Cc2ccccc2)c2ccccc21)c1ccccc1Cl` [Compound 20, (E)-N′-(1-Benzyl-2-oxoindolin-3-ylidene)-2-chlorobenzohydrazide], the IC50 is 28.8 ± 0.6 µM in data set [1] (Homo sapiens, MDA-MB-231, 48 h) and above 50 µM with normal cell line MCF-10 (Homo sapiens, MCF10, 48 h). For the same molecule, the “% viability, breast cancer cell line MDA-MB-231” value in data set [1] (MTT, 48 h) stood at 34.56%. In data set [2], the viability at 48 h is 77.6%.
In the same order, the values of `O=C(Cc1ccc(F)cc1F)N/N=C1/C(=O)N(Cc2ccccc2)c2ccccc21` [Compound 21, (E)-N′-(1-Benzyl-2-oxoindolin-3-ylidene)-2-(2,4-difluorophenyl)acetohydrazide] are 22.2 ± 0.7 µM, above 50 µM, 22.46% and 85.7%.
In the same order, the values of `O=C(N/N=C1/C(=O)N(Cc2ccccc2)c2ccccc21)c1ccccc1Br` [Compound 22, (E)-N′-(1-Benzyl-2-oxoindolin-3-ylidene)-2-bromobenzohydrazide] are 26.1 ± 0.7 µM, above 50 µM, 21.28% and 78.4%.
As to `O=C(Cc1ccccc1)N/N=C1/C(=O)N(Cc2ccccc2)c2ccccc21` [Compound 24, (E)-N′-(1-Benzyl-2-oxoindolin-3-ylidene)-2-phenylacetohydrazide], the IC50 is 24.5 ± 0.8 µM in data set [1] (setting [3]) and above 50 µM in the data set with normal cell line MCF-10 (setting [4]). The “% viability, breast cancer cell line MDA-MB-231” value in data set [1] (MTT, 48 h) came out at 29.54%. This molecule also gave a viability at 48 h in data set [2] (setting [5]) of 78.5%.
With `O=C(N/N=C1/C(=O)N(Cc2ccccc2)c2ccccc21)c1cc2ccccc2cc1O` [Compound 25, (E)-N′-(1-Benzyl-2-oxoindolin-3-ylidene)-3-hydroxy-2-naphthohydrazide], the IC50 in data set [1] (Homo sapiens, MDA-MB-231, 48 h) was 30.6 ± 0.4 µM; in the data set on normal cell line MCF-10 (Homo sapiens, MCF10, 48 h), above 50 µM. Moreover, the “% viability, breast cancer cell line MDA-MB-231” value in data set [1] (MTT, 48 h) is reported as 31.67%. Also, in data set [2], the viability at 48 h worked out at 76.3%.
On to “(E)-1-Benzyl-3-((2-(4-nitrophenyl)-2-oxoethyl)imino)indolin-2-one [Compound 23]”, for which the “% viability, breast cancer cell line MDA-MB-231” value in data set [1] (MTT, 48 h) came to 17.37%. In addition, the IC50 in data set [1] (MTT, 48 h) is 15.8 ± 0.6 µM; in the data set with normal cell line MCF-10 (MTT, 48 h, unit from text (highest concentration 50 μM)) it was above 50 µM. In the data set with normal cell line MCF-10 (MTT, 48 h, concentration for the value not given (6.5-50 μM tested)), the “% viability, normal cell line MCF-10” value is 75.23%.
